Patent US9624249B2, “Nucleoside kinase bypass compositions and methods” (Merck Sharp & Dohme Corp., priority 2013, dated 2017)
pEC50, pIC50: −log10 of the molar value. Like-named read-outs stand apart in the source and are kept apart here.

Experiments:
[1] = system: hepatitis virus C (HCV) genotype 1a; assay: HCV subgenomic replicon assay (RHEPTAQ), genotype 1a; format: cell-based
Text: (§1) Table 3 and Table 4 summarize the measured activities of these prodrugs as assessed in a subgenomic replicon assay (RHEPTAQ), against genotypes 1a, 1b and 2a.

[2] = system: hepatitis virus C (HCV) genotype 1b; assay: HCV subgenomic replicon assay (RHEPTAQ), genotype 1b; format: cell-based
Text: as §1

[3] = system: hepatitis virus C (HCV) genotype 2a; assay: HCV subgenomic replicon assay (RHEPTAQ), genotype 2a; format: cell-based
Text: as §1

HIV-1 (H9IIIB virus) = assay: Viking assay: multiple round HIV-1 infection assay in MT4-GFP cells; format: cell-based
Procedure: Assessing Antiviral Potency in a Multiple Round HIV-1 Infection Assay
The antiviral activity of the tenofovir prodrugs was assessed in a Viking assay performed as follows. HIV-1 replication was monitored using MT4-gag-GFP clone D3 (hereafter designate MT4-GFP), which are MT-4 cells modified to harbor a GFP reporter gene, the expression of which is dependent on the HIV-1 expressed proteins tat and rev. Productive infection of an MT4-GFP cell with HIV-1 results in GFP expression approximately 24 h post-infection.
MT4-GFP cells were maintained at 37° C./5% CO2/90% relative humidity in RPMI 1640 supplemented with 10% fetal bovine serum, 100 U/ml penicillin/streptomycin, and 400 μg/ml G418 to maintain the reporter gene. For infections, MT4-GFP cells were placed in the same medium lacking G418 and infected overnight with H9IIIB virus at an approximate multiplicity of infection of 0.01 in the same incubation conditions. Cells were then washed and resuspended in either RPMI 1640 containing 10% normal human serum at 1.6×10^5 cells/mL (10% NHS conditions) or in 100% normal human serum at 2×10^5 cells/mL (100% NHS conditions). Compound plates were prepared by dispensing compounds dissolved in DMSO into wells of 384 well poly D lysine-coated plates (0.2 μl/well) using an ECHO acoustic dispenser. Each compound was tested in a 10 point serial 3-fold dilution (typical final concentrations: 4.2 μM-0.21 nM). Controls included no inhibitor (DMSO only) and a combination of three antiviral agents (efavirenz, indinavir, and the integrase strand transfer inhibitor N1-ethyl-N1-((7S,10R)-2-((4-fluorobenzyl)-carbamoyl)-3-hydroxy-7-methoxy-4-oxo-4,6,7,8,9,10-hexahydropyrimido-[1,2-a]azepin-10-yl)-N2,N2-dimethyloxalamide at final concentrations of 4 μM each). Cells were added (50 μL/well) to compound plates and the infected cells were maintained at 37° C./5% CO2/90% relative humidity.
Infected cells were quantified at two time points, ˜48 h and ˜72 h post-infection, by counting the number of green cells in each well using an Acumen eX3 scanner. The increase in the number of green cells over ˜24 h period gives the reproductive ratio, R0, which is typically 5-15 and has been shown experimentally to be in logarithmic phase (data not shown) Inhibition of R0 is calculated for each well, and IC50s determined by non-linear 4-parameter curve fitting.

[4] = Hepatitis C virus, RHEPTAQ replicon, genotype 1a; read-out: EC50(1a)
[5] = Hepatitis C virus, RHEPTAQ replicon, genotype 1a; read-out: EC90(1a)
[6] = Hepatitis C virus, read-out: EC50(2a), RHEPTAQ replicon, genotype 2a
[7] = Hepatitis C virus, read-out: EC90(2a), RHEPTAQ replicon, genotype 2a
[8] = Hepatitis C virus, RHEPTAQ replicon, genotype 1b, read-out: EC50(1b)
[9] = Hepatitis C virus, RHEPTAQ replicon, genotype 1b, read-out: EC90(1b)
[10] = Hepatitis C virus, RHEPTAQ replicon, genotype 2a, read-out: EC90(2a)
[11] = RHEPTAQ replicon, genotype 1a; read-out: EC50(1a)
[12] = RHEPTAQ replicon, genotype 1a; read-out: EC90(1a)
[13] = RHEPTAQ replicon, genotype 1b, read-out: EC50(1b)
[14] = RHEPTAQ replicon, genotype 1b, read-out: EC90(1b)
[15] = RHEPTAQ replicon, genotype 2a, read-out: EC50(2a)
[16] = RHEPTAQ replicon, genotype 2a, read-out: EC90(2a)
[17] = Human immunodeficiency virus 1, read-out: Viking IP
[18] = Human immunodeficiency virus 1, inhibition of reproductive ratio R0, MT4-GFP cells infected with H9IIIB, serum condition not stated, read-out: Viking IP

C#CCO[C@H]1CSSCC1OP(=O)(NCc1ccccc1)OCC1O[C@@H](n2ccc3c(N)ncnc32)[C@](C)(O)[C@@H]1O (some centres unmarked)
pEC50 [1, 4]: 4.89
EC90 [1, 5]: 25.5 µM
pEC50 ([2]; Hepatitis C virus, read-out: EC50(1b), RHEPTAQ replicon, genotype 1b): 5.07
EC90 ([2]; Hepatitis C virus, read-out: EC90(1b), RHEPTAQ replicon, genotype 1b): 17.7 µM
pEC50 [3, 6]: 5.72
EC90 [3, 7]: 7.9 µM

COCCOCCOCCO[C@H]1CSSCC1OP1(=O)OCC2O[C@@H](n3ccc4c(N)ncnc43)[C@](C)(O)[C@@H]2O1 (some centres unmarked)
pEC50 [1, 4]: 6.00
EC90 [1, 5]: 3.3 µM
pEC50 [2, 8]: 6.74
EC90 [2, 9]: 0.448 µM
pEC50 ([3]; Hepatitis C virus, RHEPTAQ replicon, genotype 2a, read-out: EC50(2a)): 6.60
EC90 [3, 10]: 0.896 µM

C#CCO[C@H]1CSSCC1OP1(=O)OCC2O[C@@H](n3ccc4c(N)ncnc43)[C@](C)(O)[C@@H]2O1 (some centres unmarked)
pEC50 [1, 4]: 6.80
EC90 [1, 5]: 0.991 µM
pEC50 [2, 8]: 7.11
EC90 [2, 9]: 0.318 µM
pEC50 [3, 6]: 6.87
EC90 [3, 7]: 0.115 µM

C[C@@]1(O)[C@@H]2OP(=O)(OC3CSSC[C@@H]3OCc3ccccc3)OCC2O[C@H]1n1ccc(=O)[nH]c1=O (single isomer, unassigned) [drawing 109 isomer 1]
pEC50 [1, 11]: 7.15
EC90 [1, 12]: 0.233 µM
pEC50 [2, 13]: 6.96
EC90 [2, 14]: 0.383 µM
pEC50 [3, 15]: 7.05
EC90 [3, 16]: 0.442 µM

C[C@@]1(O)[C@@H]2OP(=O)(OC3CSSC[C@@H]3OCc3ccccc3)OCC2O[C@H]1n1ccc(=O)[nH]c1=O (single isomer, unassigned) [drawing 109 isomer 2]
pEC50 [1, 11]: 7.30
EC90 [1, 12]: 0.154 µM
pEC50 [2, 13]: 7.43
EC90 [2, 14]: 0.245 µM
pEC50 [3, 15]: 7.36
EC90 [3, 16]: 0.244 µM

C[C@@]1(O)[C@@H]2OP(=O)(OC3CSSC[C@@H]3OCc3ccccc3)OCC2O[C@H]1n1ccc(=O)[nH]c1=O (single isomer, unassigned) [drawing 109 isomer 3 and 4]
pEC50 [1, 11]: 6.52
EC90 [1, 12]: 0.782 µM
pEC50 [2, 13]: 6.44
EC90 [2, 14]: 0.783 µM
pEC50 [3, 15]: 6.50
EC90 [3, 16]: 1.07 µM

C[C@@]1(O)[C@@H]2OP(=S)(OC3CSSC[C@@H]3OCc3ccccc3)OCC2O[C@H]1n1ccc(=O)[nH]c1=O (single isomer, unassigned) [drawing 110 isomer 1 and 2]
pEC50 ([1]; read-out: EC50(1a); RHEPTAQ replicon, genotype 1a): 5.40
EC90 ([1]; read-out: EC90(1a); RHEPTAQ replicon, genotype 1a): 8 µM

COCCOCCOCCO[C@H]1CSSCC1OP1(=O)OCC2O[C@@H](n3ccc(=O)[nH]c3=O)[C@](C)(O)[C@@H]2O1 (single isomer, unassigned) [drawing 111 isomer 1 and 2]
pEC50 [1, 4]: 5.40
EC90 [1, 5]: 9 µM
pEC50 [2, 8]: 5.70
EC90 [2, 9]: 8 µM
EC90 [3, 10]: 21 µM
pEC50 [3, 15]: 5.22

COCCOCCOCCO[C@H]1CSSCC1OP1(=O)OCC2O[C@@H](n3ccc(=O)[nH]c3=O)[C@](C)(O)[C@@H]2O1 (single isomer, unassigned) [drawing 111 isomer 3 and 4]
pEC50 [1, 11]: 5.15
EC90 [1, 12]: 16 µM
pEC50 [2, 13]: 5.40
EC90 [2, 14]: 12 µM
pEC50 [3, 15]: 4.85
EC90 [3, 16]: 37 µM

C[C@H](Cn1cnc2c(N)ncnc21)OCP(=O)(Oc1ccccc1)OC1CSSC[C@@H]1OCc1ccccc1 (some centres unmarked) [Entry 1]
pIC50 (HIV-1 (H9IIIB virus); [17]): 5.90
CTG LD50 (CTG LD50 (cytotoxicity)): >8.403 µM

C[C@H](Cn1cnc2c(N)ncnc21)OCP(=O)(Oc1ccccc1F)OC1CSSC[C@@H]1OCc1ccccc1 (some centres unmarked) [Entry 2]
pIC50 (HIV-1 (H9IIIB virus); [17]): 6.22
CTG LD50 (CTG LD50 (cytotoxicity)): >8.403 µM

C[C@H](Cn1cnc2c(N)ncnc21)OCP(=O)(Oc1cccc(F)c1)OC1CSSC[C@@H]1OCc1ccccc1 (some centres unmarked) [Entry 3]
pIC50 (HIV-1 (H9IIIB virus); [17]): 6.21
CTG LD50 (CTG LD50 (cytotoxicity)): >42.02 µM

C[C@H](Cn1cnc2c(N)ncnc21)OCP(=O)(Oc1ccc(F)cc1)OC1CSSC[C@@H]1OCc1ccccc1 (some centres unmarked) [Entry 4]
pIC50 (HIV-1 (H9IIIB virus); [17]): 5.70
CTG LD50 (CTG LD50 (cytotoxicity)): >8.403 µM

C[C@H](Cn1cnc2c(N)ncnc21)OCP(=O)(Oc1ccc(Cl)cc1)OC1CSSC[C@@H]1OCc1ccccc1 (some centres unmarked) [Entry 5]
pIC50 (HIV-1 (H9IIIB virus); [17]): 5.80
CTG LD50 (CTG LD50 (cytotoxicity)): >8.403 µM

C[C@H](Cn1cnc2c(N)ncnc21)OCP(=O)(Oc1cccc(Cl)c1)OC1CSSC[C@@H]1OCc1ccccc1 (some centres unmarked) [Entry 6]
pIC50 (HIV-1 (H9IIIB virus); [17]): 5.73
CTG LD50 (CTG LD50 (cytotoxicity)): >8.403 µM

C[C@H](Cn1cnc2c(N)ncnc21)OCP(=O)(Oc1ccccc1Cl)OC1CSSC[C@@H]1OCc1ccccc1 (some centres unmarked) [Entry 7]
pIC50 (HIV-1 (H9IIIB virus); [17]): 5.80
CTG LD50 (CTG LD50 (cytotoxicity)): >8.403 µM

Cc1cccc(OP(=O)(CO[C@H](C)Cn2cnc3c(N)ncnc32)OC2CSSC[C@@H]2OCc2ccccc2)c1 (some centres unmarked) [Entry 8]
pIC50 (HIV-1 (H9IIIB virus); [17]): 5.95
CTG LD50 (CTG LD50 (cytotoxicity)): >42.02 µM

Cc1ccc(OP(=O)(CO[C@H](C)Cn2cnc3c(N)ncnc32)OC2CSSC[C@@H]2OCc2ccccc2)cc1 (some centres unmarked) [Entry 9]
pIC50 (HIV-1 (H9IIIB virus); [17]): 5.79
CTG LD50 (CTG LD50 (cytotoxicity)): >42.02 µM

Cc1ccccc1OP(=O)(CO[C@H](C)Cn1cnc2c(N)ncnc21)OC1CSSC[C@@H]1OCc1ccccc1 (some centres unmarked) [Entry 10]
pIC50 (HIV-1 (H9IIIB virus); [17]): 5.53
CTG LD50 (CTG LD50 (cytotoxicity)): >42.02 µM

COc1ccc(OP(=O)(CO[C@H](C)Cn2cnc3c(N)ncnc32)OC2CSSC[C@@H]2OCc2ccccc2)cc1 (some centres unmarked) [Entry 11]
pIC50 (HIV-1 (H9IIIB virus); [17]): 5.53
CTG LD50 (CTG LD50 (cytotoxicity)): >42.02 µM

COc1ccccc1OP(=O)(CO[C@H](C)Cn1cnc2c(N)ncnc21)OC1CSSC[C@@H]1OCc1ccccc1 (some centres unmarked) [Entry 12]
pIC50 (HIV-1 (H9IIIB virus); [17]): 5.81
CTG LD50 (CTG LD50 (cytotoxicity)): >39.78 µM

COc1cccc(OP(=O)(CO[C@H](C)Cn2cnc3c(N)ncnc32)OC2CSSC[C@@H]2OCc2ccccc2)c1 (some centres unmarked) [Entry 13]
pIC50 (HIV-1 (H9IIIB virus); [17]): 5.74
CTG LD50 (CTG LD50 (cytotoxicity)): >8.403 µM

C[C@H](Cn1cnc2c(N)ncnc21)OCP(=O)(Oc1ccccc1)OC1CSSC[C@H]1OCc1ccccc1 (some centres unmarked) [Entry 14]
pIC50 (HIV-1 (H9IIIB virus); [17]): 5.90
CTG LD50 (CTG LD50 (cytotoxicity)): >8.403 µM

C[C@H](Cn1cnc2c(N)ncnc21)OCP(=O)(O)OC1CSSC[C@@H]1OCc1ccccc1 (some centres unmarked) [Entry 15]
pIC50 (HIV-1 (H9IIIB virus); [18]): < 5.08

C[C@H](Cn1cnc2c(N)ncnc21)OCP(=O)(O)OC1CSSC[C@H]1OCc1ccccc1 (some centres unmarked) [Entry 16]
pIC50 (HIV-1 (H9IIIB virus); [18]): < 5.08
